Values joined by “and” are separate entries in the source; they are usually repeats but may differ in a detail not shown here. Identical values can stand only once. Toxic doses and inconclusive results are not listed.
Test system: L1210 leukemia ip in BDF1 mice, survival T/C
Assay: NCI In Vivo Anticancer Drug Screen. Data for tumor model L1210 Leukemia (intraperitoneal) in B6D2F1 (BDF1) mice
Conditions: higher = longer survival
Outline: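 Read-out is survival time, reported as the treated-group measurement over the vehicle-control measurement.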

[1] = endpoint: mean survival time, dose: 100.0 mg/kg/injection, schedule: Q01DX001 (ip), vehicle: saline
[2] = endpoint: mean survival time, dose: 200.0 mg/kg/injection, schedule: Q01DX001 (ip), vehicle: saline

SMILES: CS(=O)(=O)OCCCNCCCOS(C)(=O)=O
- T/C (endpoint: mean survival time, dose: 3.0 mg/kg/injection, schedule: Q03HX024 (ip), vehicle: saline): 122 % of control
- T/C (endpoint: mean survival time, dose: 5.0 mg/kg/injection, schedule: Q03HX008 (ip), vehicle: saline): 119 % of control
- T/C (endpoint: mean survival time, dose: 5.0 mg/kg/injection, schedule: Q03HX024 (ip), vehicle: saline): 152 % of control
- T/C (endpoint: mean survival time, dose: 8.4 mg/kg/injection, schedule: Q01DX009 (ip), vehicle: saline): 160 % of control and 173 % of control
- T/C (endpoint: mean survival time, dose: 8.4 mg/kg/injection, schedule: Q03HX008 (ip), vehicle: saline): 150 % of control
- T/C (endpoint: mean survival time, dose: 8.4 mg/kg/injection, schedule: Q03HX016 (ip), vehicle: saline): 156 % of control
- T/C (endpoint: mean survival time, dose: 8.4 mg/kg/injection, schedule: Q03HX024 (ip), vehicle: saline): 155 % of control and 245 % of control
- T/C (endpoint: mean survival time, dose: 14.0 mg/kg/injection, schedule: Q01DX009 (oral), vehicle: saline): 100 % of control
- T/C (endpoint: mean survival time, dose: 14.0 mg/kg/injection, schedule: Q01DX015 (ip), vehicle: saline): 155 % of control
- T/C (endpoint: mean survival time, dose: 14.0 mg/kg/injection, schedule: Q03HX008 (ip), vehicle: saline): 166 % of control and 239 % of control
- T/C (endpoint: mean survival time, dose: 14.0 mg/kg/injection, schedule: Q03HX016 (ip), vehicle: saline): 188 % of control and 303 % of control
- T/C (endpoint: mean survival time, dose: 14.0 mg/kg/injection, schedule: Q03HX024 (ip), vehicle: saline): 332 % of control and 344 % of control
- T/C (endpoint: mean survival time, dose: 20.0 mg/kg/injection, schedule: Q01DX009 (ip), vehicle: saline): 164 % of control and 179 % of control
- T/C (endpoint: mean survival time, dose: 21.0 mg/kg/injection, schedule: Q01DX015 (ip), vehicle: saline): 155 % of control
- T/C (endpoint: mean survival time, dose: 23.0 mg/kg/injection, schedule: Q01DX009 (oral), vehicle: saline): 115 % of control
- T/C (endpoint: mean survival time, dose: 23.0 mg/kg/injection, schedule: Q03HX008 (ip), vehicle: saline): 184 % of control and 327 % of control
- T/C (endpoint: mean survival time, dose: 23.0 mg/kg/injection, schedule: Q03HX016 (ip), vehicle: saline): 244 % of control and 440 % of control
- T/C (endpoint: mean survival time, dose: 23.0 mg/kg/injection, schedule: Q04DX003 (iv), vehicle: saline): 98 % of control
- T/C (endpoint: mean survival time, dose: 25.0 mg/kg/injection, schedule: Q01DX001 (ip), vehicle: saline): 115 % of control
- T/C (endpoint: mean survival time, dose: 36.0 mg/kg/injection, schedule: Q01DX015 (ip), vehicle: saline): 242 % of control
- T/C (endpoint: mean survival time, dose: 39.0 mg/kg/injection, schedule: Q01DX003 (ip), vehicle: saline): 164 % of control and 170 % of control
- T/C (endpoint: mean survival time, dose: 39.0 mg/kg/injection, schedule: Q01DX005 (ip), vehicle: saline): 190 % of control
- T/C (endpoint: mean survival time, dose: 39.0 mg/kg/injection, schedule: Q01DX009 (sc), vehicle: saline): 120 % of control
- T/C (endpoint: mean survival time, dose: 39.0 mg/kg/injection, schedule: Q04DX003 (ip), vehicle: clinical formulation): 157 % of control
- T/C (endpoint: mean survival time, dose: 39.0 mg/kg/injection, schedule: Q04DX003 (ip), vehicle: saline): 212 % of control
- T/C (endpoint: mean survival time, dose: 39.0 mg/kg/injection, schedule: Q04DX003 (iv), vehicle: saline): 87 % of control
- T/C (endpoint: mean survival time, dose: 39.0 mg/kg/injection, schedule: Q08DX002 (ip), vehicle: saline): 200 % of control
- T/C (endpoint: mean survival time, dose: 40.0 mg/kg/injection, schedule: Q01DX009 (ip), vehicle: saline): 178 % of control and 188 % of control
- T/C (endpoint: mean survival time, dose: 60.0 mg/kg/injection, schedule: Q01DX015 (ip), vehicle: saline): 159 % of control
- T/C (endpoint: mean survival time, dose: 65.0 mg/kg/injection, schedule: Q01DX001 (ip), vehicle: saline): 160 % of control
- T/C (endpoint: mean survival time, dose: 65.0 mg/kg/injection, schedule: Q01DX001 (oral), vehicle: saline): 109 % of control
- T/C (endpoint: mean survival time, dose: 65.0 mg/kg/injection, schedule: Q01DX003 (ip), vehicle: saline): 241 % of control
- T/C (endpoint: mean survival time, dose: 65.0 mg/kg/injection, schedule: Q01DX005 (ip), vehicle: saline): 402 % of control
- T/C (endpoint: mean survival time, dose: 65.0 mg/kg/injection, schedule: Q01DX009 (oral), vehicle: saline): 106 % of control
- T/C (endpoint: mean survival time, dose: 65.0 mg/kg/injection, schedule: Q04DX003 (ip), vehicle: clinical formulation): 159 % of control
- T/C (endpoint: mean survival time, dose: 65.0 mg/kg/injection, schedule: Q04DX003 (ip), vehicle: saline): 299 % of control and 445 % of control
- T/C (endpoint: mean survival time, dose: 65.0 mg/kg/injection, schedule: Q04DX003 (ip), vehicle: water): 173 % of control
- T/C (endpoint: mean survival time, dose: 65.0 mg/kg/injection, schedule: Q04DX003 (iv), vehicle: saline): 109 % of control
- T/C (endpoint: mean survival time, dose: 65.0 mg/kg/injection, schedule: Q04DX003 (oral), vehicle: saline): 120 % of control
- T/C (endpoint: mean survival time, dose: 65.0 mg/kg/injection, schedule: Q08DX002 (ip), vehicle: saline): 226 % of control
- T/C (endpoint: mean survival time, dose: 80.0 mg/kg/injection, schedule: Q01DX009 (ip), vehicle: saline): 94 % of control and 122 % of control
- T/C [1]: 150 % of control
- T/C (endpoint: mean survival time, dose: 108.0 mg/kg/injection, schedule: Q01DX001 (ip), vehicle: saline): 193 % of control and 337 % of control
- T/C (endpoint: mean survival time, dose: 108.0 mg/kg/injection, schedule: Q01DX001 (oral), vehicle: saline): 110 % of control
- T/C (endpoint: mean survival time, dose: 108.0 mg/kg/injection, schedule: Q01DX001 (sc), vehicle: saline): 115 % of control
- T/C (endpoint: mean survival time, dose: 108.0 mg/kg/injection, schedule: Q01DX003 (ip), vehicle: saline): 247 % of control and 310 % of control
- T/C (endpoint: mean survival time, dose: 108.0 mg/kg/injection, schedule: Q01DX005 (ip), vehicle: saline): 280 % of control
- T/C (endpoint: mean survival time, dose: 108.0 mg/kg/injection, schedule: Q01DX009 (sc), vehicle: saline): 93 % of control
- T/C (endpoint: mean survival time, dose: 108.0 mg/kg/injection, schedule: Q04DX003 (ip), vehicle: clinical formulation): 108 % of control
- T/C (endpoint: mean survival time, dose: 108.0 mg/kg/injection, schedule: Q04DX003 (ip), vehicle: saline): 267 % of control and 422 % of control
- T/C (endpoint: mean survival time, dose: 108.0 mg/kg/injection, schedule: Q04DX003 (ip), vehicle: water): 100 % of control
- T/C (endpoint: mean survival time, dose: 108.0 mg/kg/injection, schedule: Q04DX003 (iv), vehicle: saline): 113 % of control
- T/C (endpoint: mean survival time, dose: 180.0 mg/kg/injection, schedule: Q01DX001 (ip), vehicle: saline): 246 % of control
- T/C (endpoint: mean survival time, dose: 180.0 mg/kg/injection, schedule: Q01DX001 (oral), vehicle: saline): 120 % of control
- T/C (endpoint: mean survival time, dose: 180.0 mg/kg/injection, schedule: Q01DX001 (sc), vehicle: saline): 115 % of control
- T/C (endpoint: mean survival time, dose: 180.0 mg/kg/injection, schedule: Q01DX003 (ip), vehicle: saline): 95 % of control and 103 % of control
- T/C (endpoint: mean survival time, dose: 180.0 mg/kg/injection, schedule: Q04DX003 (iv), vehicle: saline): 118 % of control
- T/C (endpoint: mean survival time, dose: 180.0 mg/kg/injection, schedule: Q04DX003 (oral), vehicle: saline): 95 % of control
- T/C (endpoint: mean survival time, dose: 180.0 mg/kg/injection, schedule: Q08DX002 (ip), vehicle: saline): 421 % of control
- T/C [2]: 157 % of control and 176 % of control and 200 % of control
- T/C (endpoint: median survival time, dose: 12.5 mg/kg/injection, schedule: Q01DX009 (ip), vehicle: saline): 115 % of control
- T/C (endpoint: median survival time, dose: 23.0 mg/kg/injection, schedule: Q01DX005 (ip), vehicle: saline): 122 % of control
- T/C (endpoint: median survival time, dose: 25.0 mg/kg/injection, schedule: Q01DX009 (ip), vehicle: saline): 150 % of control
- T/C (endpoint: median survival time, dose: 39.0 mg/kg/injection, schedule: Q01DX005 (ip), vehicle: saline): 155 % of control
- T/C (endpoint: median survival time, dose: 39.0 mg/kg/injection, schedule: Q01DX005 (sc), vehicle: saline): 122 % of control
- T/C (endpoint: median survival time, dose: 39.0 mg/kg/injection, schedule: Q01DX009 (ip), vehicle: saline): 150 % of control
- T/C (endpoint: median survival time, dose: 50.0 mg/kg/injection, schedule: Q01DX009 (ip), vehicle: saline): 180 % of control
- T/C (endpoint: median survival time, dose: 50.0 mg/kg/injection, schedule: Q04DX003 (ip), vehicle: saline): 161 % of control
- T/C (endpoint: median survival time, dose: 65.0 mg/kg/injection, schedule: Q01DX005 (ip), vehicle: saline): 155 % of control
- T/C (endpoint: median survival time, dose: 65.0 mg/kg/injection, schedule: Q01DX009 (ip), vehicle: saline): 100 % of control and 115 % of control
- T/C (endpoint: median survival time, dose: 65.0 mg/kg/injection, schedule: Q04DX003 (ip), vehicle: saline): 155 % of control
- T/C (endpoint: median survival time, dose: 100.0 mg/kg/injection, schedule: Q04DX003 (ip), vehicle: saline): 177 % of control and 666 % of control
- T/C (endpoint: median survival time, dose: 108.0 mg/kg/injection, schedule: Q01DX001 (ip), vehicle: saline): 155 % of control
- T/C (endpoint: median survival time, dose: 108.0 mg/kg/injection, schedule: Q01DX005 (ip), vehicle: saline): 100 % of control
- T/C (endpoint: median survival time, dose: 108.0 mg/kg/injection, schedule: Q01DX005 (sc), vehicle: saline): 88 % of control
- T/C (endpoint: median survival time, dose: 108.0 mg/kg/injection, schedule: Q04DX003 (ip), vehicle: saline): 188 % of control
- T/C (endpoint: median survival time, dose: 200.0 mg/kg/injection, schedule: Q04DX003 (ip), vehicle: saline): 100 % of control

SMILES: c1ccc(C(NC(c2ccccc2)c2ccccc2)c2ccccc2)cc1
- T/C (endpoint: mean survival time, dose: 50.0 mg/kg/injection, schedule: Q01DX001 (ip), vehicle: saline): 91 % of control
- T/C [1]: 97 % of control
- T/C [2]: 93 % of control
- T/C (endpoint: mean survival time, dose: 400.0 mg/kg/injection, schedule: Q01DX001 (ip), vehicle: saline): 97 % of control

SMILES: CCCCCCCCCCN=C(N)N/C(N)=N/S(=O)(=O)c1ccc(OCCC)cc1
- T/C (endpoint: mean survival time, dose: 100.0 mg/kg/injection, schedule: Q04DX002 (ip), vehicle: saline with Tween-80): 100 % of control
- T/C (endpoint: mean survival time, dose: 200.0 mg/kg/injection, schedule: Q04DX002 (ip), vehicle: saline with Tween-80): 110 % of control
- T/C (endpoint: mean survival time, dose: 400.0 mg/kg/injection, schedule: Q04DX002 (ip), vehicle: saline with Tween-80): 107 % of control
